The values below come from paper PMC5711494, “Sterol methyltransferase a target for anti-amoeba therapy: towards transition state analog and suicide substrate drug design” (Journal of Lipid Research, 2017).

The IC50 is the concentration at which inhibition is half-maximal.

Where two headings read alike, the source gives them in different places.

One test relates to Ac24-SMT. The test can be described thus: Substrate kinetics and product analysis with recombinant Ac24-SMT. It is filed as biochemical, Acanthamoeba castellanii. The note with it: for product ratio generated by Ac24-SMT: normalized to cycloartenol at ∼70% conversion, saturating substrate, 45 min, 35°C. The protocol: (§1) The SMT constructs were transformed into competent BL21(DE3) cells and transformants selected against 100 µg/ml ampicillin. Expression of the SMT constructs and partial purification of the recombinant proteins followed the procedure described previously ([19]). […] In one tube, cells were induced by addition of isopropyl thio-galactoside at a final concentration of 1 mM and in the other tube, were un-induced. Cells were harvested 2 and 4 h after induction and an equal number of cells (as calculated by OD @600 nm) from induced (+) and un-induced (−) cultures were boiled with 1X Laemmli’s buffer and analyzed by SDS-PAGE (12%). Gel was stained with Coomassie Brilliant Blue (0.2%) to establish the molecular weight and purity of the expressed protein. Total protein concentrations were determined by Bradford dye-binding procedure with bovine γ-globulin as standard. To determine the catalytic activity of the recombinant proteins, enzyme assays were carried out using soluble bacterial extract (100,000 g fraction) in 9 ml test tubes containing a total of 600 µl assay volume for 45 min (initial velocity conditions). The assay buffer contained 20 mM phosphate buffer in 5% (v/v) glycerol at pH 7.5, sterol acceptor emulsified in 12 µl Tween 80 (1.2 g/l), and the substrate tested over the concentration range 5 to 150 µM against 1.2 mg of total protein. The reaction was initiated by the addition of saturating levels of [methyl-^3H3]SAM, 0.9 µCi, at 150 µM. Incubation mixtures were saponified with methanolic potassium hydroxide and extracted with hexane (3 × 1 ml) and concentrated to dryness providing the nonsaponifiable lipid fraction; radioactivity was determined by liquid scintillation counting. […]

A further test concerns Ac28-SMT. Briefly: Substrate kinetics and product analysis with recombinant Ac28-SMT. It is filed as biochemical, Acanthamoeba castellanii. Further details: catalytic competence (kcat/Km) with Ac28-SMT: unit not given here. The settings on record: for product ratio generated by Ac28-SMT: normalized, saturating substrate, 45 min, 35°C. The protocol: as §1
The subject of the next test is TbSMT. Also noted: method as in PMID 26496686. The note with it: cited from earlier work.
Test [1] deals with Acanthamoeba castellanii trophozoites (strain ATCC 30010). Further details: method as in PMID 26014948. The note with it: previously reported; read-out: IC50 for Ac growth, previously reported value; cited from earlier work.
The subject of test [2] is Acanthamoeba castellanii trophozoites sterol biosynthesis. Briefly: Sterol composition of treated Ac trophozoites (GC/MS). Type of test: cell-based. The note with it: to 48 h. The protocol: Amoeba and HEK cells were harvested at one or more points during growth in the presence and absence of steroidal inhibitor and azole at IC50 or MACs of the inhibitor or at 40 µM for HEK cells. Cell pellets were split with an internal standard of known amounts of 5α-cholestane added to one of the cell pellets for determination of sterol amounts in cells. Cells were saponified directly in aqueous methanolic potassium hydroxide at the reflux temperature for 1 h, which yielded total sterol (free plus sterol released from ester bonds). The resulting neutral lipids obtained by dilution with water and extraction with hexane (Fisher) were analyzed by GC/MS or HPLC-equipped with a diode array detector against cholesterol as a chromatographic reference. GC and HPLC retention times of sterols were compared with those obtained from authentic standards in our steroid collection ([18]–[22]). To determine the trophozoite sterol metabolome, GC/MS analysis of cell pellet nonsaponfiables was typically carried out using control cultures incubated in 5 ml medium in 25 ml T-flasks inoculated with 1 × 10^4 trophozoites/ml and cultured for 72 h. To generate significant cell pellets for sterol analysis of treated cells, trophozoites were cultured in 10 ml medium in 25 ml T-flasks inoculated with 1 × 10^5 cells/ml and grown for 48 h.

Test [3] has as its system Acanthamoeba castellanii trophozoites (strain ATCC 30010). The test can be described thus: Ac trophozoite growth inhibition and minimum amoebicidal concentration (trypan blue exclusion). Type of test: cell-based. The settings on record: 48 h incubation. The protocol: Ac strain ATCC 30010 was inoculated (1 × 10^4 cells/ml) into tissue culture T-25 ml flasks, prepared with ATTC media 712 and cultured axenically in 5 ml medium at 25°C. Continuous cultures populated by trophozoites ([…]; the remaining cells were cysts) was maintained by sub-culturing 4–5 day growth arrested cells (1 × 10^6 cells/ml) into fresh medium. Steroidal inhibitor and azole susceptibility assays were performed in 24-well (4 × 6) microtiter plates (3 ml total). Trophozoite assay conditions and preparation of stock solutions made to 1 μg/10 μl and 1 μg/100 μl in DMSO through serial dilution to achieve final inhibitor concentrations of 64, 32, 16, 8, 4, 2, 1, 0.5, 0.25, 0.125, 0.0625, and 0.03125 µg/ml in 1% DMSO as reported previously for voriconazole incubated with Ac ([25]). Growth curves to evaluate treated trophozoites were initiated with 1 × 10^6 cells/ml and incubated for 48 h. Cell number was calculated with the use of a hemocytometer. The percentage of viable trophozoites following exposure to different concentrations of inhibitors was determined by the standard trypan blue exclusion method. Cells stained blue were considered nonviable. […] The IC50 of inhibitors against trophozoite growth was evaluated using GraphPad Prism with default setting (GraphPad Software Inc., CA).

For the compound `CC(C)=CCCC(C)C1CC[C@@]2(C)C3=C(CCC12C)C1(C)CCC(O)CC1CC3` (stereo partly drawn) [14α-methylzymosterol], the “product ratio generated by Ac24-SMT” value in the test on Ac24-SMT came out at 97. For the same compound, in the test on Ac28-SMT, the “product ratio generated by Ac28-SMT” value amounted to 26.
Consider `C=C(CCC(C)C1CCC2(C)C3CCC4C(C)(C)C(O)CCC45CC35CCC12C)C(C)C` (stereo not drawn) [24(28)-methylenecycloartanol], for which the “product ratio generated by Ac24-SMT” value with Ac24-SMT worked out at 0. In addition, in the test with Ac28-SMT, the “product ratio generated by Ac28-SMT” value is listed as 0.
For the compound `C=C(CCC(C)C1CCC2C3=CCC4C(C)C(O)CCC4(C)C3CCC21C)C(C)C` (stereo not drawn) [24(28)-methylenelophenol], in the test on Ac24-SMT, the “product ratio generated by Ac24-SMT” value is listed as 0. Further, in the test on Ac28-SMT (from Lineweaver-Burk plots), the “Km as substrate of Ac28-SMT” value is approximately 25 µM, the “catalytic competence (kcat/Km) with Ac28-SMT” value is reported as approximately 0.03 and the “kcat as substrate of Ac28-SMT” value is approximately 0.013 s⁻¹. Moreover, the “product ratio generated by Ac28-SMT” value in the test with Ac28-SMT stood at 100.
Consider `CC(=CCC[C@@H](C)[C@H]1CC[C@H]2C3=CC=C4C[C@@H](O)CC[C@]4(C)[C@H]3CC[C@]12C)CF` [26-flourocholesta-5,7,24-trieniol], for which the “partition ratio against TbSMT” value with TbSMT is 3.
Take `CC(C)=CCCC(C)C1CC[C@@]2(C)C3=C(CCC12C)C1(C)CCC(O)[C@@H](C)C1CC3` (stereo partly drawn) [31-norlanosterol]: in the test with Ac24-SMT, the “product ratio generated by Ac24-SMT” value is 100. The “product ratio generated by Ac28-SMT” value with Ac28-SMT is reported as 49.
Regarding `CC(C)=CCCC(C)C1CCC2C3=CC=C4CC(O)CCC4(C)C3CCC21C` (stereo not drawn) [cholesta-5,7,24-trienol], the “product ratio generated by Ac24-SMT” value in the test on Ac24-SMT is listed as 100. The “product ratio generated by Ac28-SMT” value in the test with Ac28-SMT is listed as 50.
Turning to `CC(C)=CCC[C@@H](C)[C@H]1CC[C@@]2(C)[C@@H]3CC[C@H]4C(C)(C)[C@@H](O)CC[C@@]45C[C@@]35CC[C@]12C` [cycloartenol], the “product ratio generated by Ac24-SMT” value in the test with Ac24-SMT was determined as 100. The “Km (Michaelis / binding constant) as substrate of Ac24-SMT” value with Ac24-SMT (saturating SAM 150 µM, initial velocity conditions) is approximately 44 µM. Besides, the “kcat (turnover rate) as substrate of Ac24-SMT” value in the test on Ac24-SMT (saturating SAM, initial velocity conditions) is on record as “about 1.5 min^−1”. In the test on Ac28-SMT, the “product ratio generated by Ac28-SMT” value turned out to be 67.
Take `C=C(CC[C@@H](C)[C@H]1CC[C@@]2(C)[C@@H]3CC[C@H]4[C@H](C)[C@@H](O)CC[C@@]45C[C@@]35CC[C@]12C)C(C)C` [cycloeucalenol]: the “product ratio generated by Ac24-SMT” value in the test on Ac24-SMT turned out to be 0. Moreover, the “product ratio generated by Ac28-SMT” value in the test on Ac28-SMT stood at 0.
Take `C=C(CCC(C)C1CCC2C3=CCC4CC(O)CCC4(C)C3CCC21C)C(C)C` (stereo not drawn) [episterol]: in the test with Ac24-SMT, the “product ratio generated by Ac24-SMT” value is 0. Further, the “product ratio generated by Ac28-SMT” value in the test on Ac28-SMT turned out to be 64.
For the compound `C=C(CCC(C)C1CCC2C3=C(CCC21C)C1(C)CCC(O)CC1CC3)C(C)C` (stereo not drawn) [fecosterol], in the test with Ac24-SMT, the “product ratio generated by Ac24-SMT” value was 0. Further, the “product ratio generated by Ac28-SMT” value in the test on Ac28-SMT was 29.
For the compound `CC(C)=CCC[C@@H](C)[C@H]1CC[C@@]2(C)C3=C(CC[C@]12C)[C@@]1(C)CC[C@H](O)C(C)(C)[C@@H]1CC3` [lanosterol], the “product ratio generated by Ac24-SMT” value in the test on Ac24-SMT is 100. For the same compound, in the test on Ac28-SMT, the “product ratio generated by Ac28-SMT” value is on record as 15.
On the same counts, the results for `C=C(CC[C@@H](C)[C@H]1CC[C@@]2(C)C3=C(CC[C@]12C)[C@@]1(C)CC[C@H](O)[C@@H](C)[C@@H]1CC3)C(C)C` [obtusifoliol] are 0 and 0.
Take `C[C@@H](c1ncncc1F)[C@](O)(Cn1cncn1)c1ccc(F)cc1F` [voriconazole]: the IC50 in test [1] is 390 nM; in test [3] (Acanthamoeba castellanii, ATCC30010, Ac trophozoites), 140 nM. For the same compound, in test [2], the “accumulation of substrate of the target enzyme in treated trophozoites” value is not above 1 % total. For the same compound, in test [3], the “MAC (complete inhibition of growth, minimum amoebicidal concentration)” value came to 3 µM.
As for `CC(C)=CCCC(C)C1CCC2C3=C(CCC21C)C1(C)CCC(O)CC1CC3` (stereo not drawn) [zymosterol], the “product ratio generated by Ac24-SMT” value with Ac24-SMT was 97. Besides, the “product ratio generated by Ac28-SMT” value in the test with Ac28-SMT stood at 63.
Take eburicol: the “product ratio generated by Ac24-SMT” value in the test with Ac24-SMT was determined as 0. The “product ratio generated by Ac28-SMT” value with Ac28-SMT is 0.
